Laboratory results as given in ChEMBL document CHEMBL1159236, “Venezenin: a new bioactive Annonaceous acetogenin from the bark of Xylopia aromatica” (J Nat Prod, 1995).
Converted amounts (≈) assume the structure as drawn.

Assays:
[1] = system: A549; experiment: Cytotoxicity against human A549 cells after 7 hrs by MTT assay; format: functional; conditions: A549, 7 h, read-out: ED50 (the source's name)
[2] = system: MCF7; experiment: Cytotoxicity against human MCF7 cells after 7 hrs by MTT assay; format: functional; conditions: for EC50: Homo sapiens, MCF7, 7 h, read-out: ED50 (the source's name)
[3] = system: HT-29; experiment: Cytotoxicity against human HT-29 cells after 7 hrs by MTT assay; format: functional; conditions: for EC50: Homo sapiens, HT-29, 7 h, read-out: ED50 (the source's name)
[4] = Toxicity in brine shrimp; format: organism-based; conditions: artemia, in vivo
[5] = Inhibition of respiration in rat liver mitochondria assessed per mg of protein; format: functional

## CCCCCCCCCCCC/C=C\CC[C@H]1OC(C)(C)O[C@@H]1CCCCCCC(=O)CCCCC[C@@H](O)CC1=C[C@H](C)OC1=O
[1]
  EC50: < 0.001 µg/mL
[2]
  EC50: 0.347 µg/mL (≈ 0.536 µM)
[3]
  EC50: 0.932 µg/mL (≈ 1.44 µM)

## CCCCCCCCCCCC[C@H](O)[C@@H]1CC[C@@H]([C@@H](O)CCCCCCC(=O)CCCCC[C@@H](O)CC2=C[C@H](C)OC2=O)O1
[4]
  LC50: 0.84 µg/mL (≈ 1.35 µM)
[1]
  EC50: 0.00786 µg/mL (≈ 0.0126 µM)
[2]
  ED50: 7.47 ×10⁻⁵ ug/ml
[3]
  ED50: 3.46 ×10⁻⁴ ug/ml
[5]
  IC50: 1.7 µM

## CCCCCCCCCCCC/C=C\CC[C@@H](O)[C@H](O)CCCCCCC(O)CCCCC[C@@H](O)CC1=C[C@H](C)OC1=O (stereo partly drawn)
[1]
  EC50: < 0.001 µg/mL
[2]
  EC50: 0.0572 µg/mL (≈ 0.0939 µM)
[3]
  EC50: 2.62 µg/mL (≈ 4.3 µM)

## CCCCCCCCCCCC[C@H](O)[C@@H]1CC[C@H]([C@H](O)CCCCCCC(=O)CCCCC[C@@H](O)CC2=C[C@H](C)OC2=O)O1
[4]
  LC50: 0.98 µg/mL (≈ 1.57 µM)
[1]
  EC50: 0.0045 µg/mL (≈ 0.00722 µM)
[2]
  EC50: 0.056 µg/mL (≈ 0.0899 µM)
[3]
  EC50: 0.047 µg/mL (≈ 0.0755 µM)

## COc1cccc2c1C(=O)c1c(O)c3c(c(O)c1C2=O)C[C@@](O)(C(=O)CO)C[C@@H]3O[C@H]1C[C@H](N)[C@H](O)[C@H](C)O1 [DOXORUBICIN]
[1]
  EC50: 0.0092 µg/mL (≈ 0.0169 µM)
[2]
  EC50: 0.23 µg/mL (≈ 0.423 µM)
[3]
  EC50: 0.0392 µg/mL (≈ 0.0721 µM)

## C=C(C)[C@H]1Cc2c(ccc3c2O[C@@H]2COc4cc(OC)c(OC)cc4[C@@H]2C3=O)O1 [ROTENONE]
[5]
  IC50: 34 µM

## CCCCCCCCCCCC/C=C\CC[C@@H](O)[C@H](O)CCCCCCC(=O)CCCCC[C@@H](O)CC1=C[C@H](C)OC1=O [VENEZENIN]
[4]
  LC50: 9.33 µg/mL (≈ 15.4 µM)
[1]
  EC50: 0.0108 µg/mL (≈ 0.0178 µM)
[2]
  EC50: < 0.01 µg/mL
[3]
  EC50: 1.58 µg/mL (≈ 2.6 µM)
